We go through 20 molecules from patent US12297190B2, “Modulators of STING (stimulator of interferon genes)” (PFIZER INC., priority 2019, dated 2025).

Structures can show the parent of a compound that is named as a salt.

Assay [1] has as its target T1, STING (Homo sapiens, UniProt Q86WV6, G230A/H232R/R293Q/R71H).
T1 construct: host or cells: THP-1 and THP-1 Lucia ISG cells
Put plainly: Phosphorylation of IRF3: THP-1 cell ELISA. The format is cell-based. To be noted: THP-1 cells, 3 hours incubation, phospho-IRF3 ELISA; read-out: THP-1 CELL P-IRF3 EC50. On the procedure: Phosphorylation of IRF3: THP-1 Cell ELISA
STING activation results in recruitment of TBK1 and phosphorylation of IRF3 transcription factor before induction of type I interferons. THP-1 cells (InvivoGen) were grown in RPMI media plus 2 mM L-glutamine, 10% fetal bovine serum, and 0.5% Pen-Strep. 10^4 cells were seeded in 96-well plates and incubated overnight 37° C., 5% CO2. Compounds serial diluted compounds in media (final 0.5% DMSO) were added to the cells and incubated for an additional 3 hours. After incubation, the plates were centrifuged at 2000 rpm for 5 min. The cells were then lysed in 100 μl RIPA buffer and vortexed for 30 minutes at room temperature. 25 μl of lysate was then transferred to clear polystyrene High Bind plates that had been previously coated with mouse anti-human IRF-3 capture antibody (BD Pharmigen), and allowed to incubate at 4° C. for 16 hours. The plates were then washed and incubated with rabbit anti-phospho-IRF3 detection antibody (Cell Signaling Technologies) for 1.5 hours at room temperature. Finally, an HRP-linked secondary antibody (Cell Signaling Technologies) was added for 30 min before the Glo Substrate Reagent (R&D Systems) was used generate the luminescent signal. The signal was measured using a Perkin-Elmer Envision microplate reader. Data were normalized to “% effect” with a positive control STING agonist that was known to maximize the phosphorylated IRF3 signal and the negative control was DMSO.
(In general: An ELISA detects its analyte on a solid surface through an enzyme-linked reagent.)

Assay [2] concerns the target T1, STING. Put plainly: Interferon-β induction: THP-1 Lucia ISG reporter cell line. The class given is cell-based. To be noted: THP-1 Lucia ISG cells, 24 hours incubation, luciferase reporter; read-out: THP-1 Lucia ISG Cells IFN-β EC50. On the procedure:
Interferon-β Induction: THP-1 ISG Reporter Cell Line
THP-1 Lucia™ ISG cells (InvivoGen) express the secreted luciferase “Lucia” reporter gene under the control of an IRF-inducible composite promotor comprised of five interferon response elements. THP-1 Lucia™ ISG cells were grown in RPMI media plus 2 mM L-glutamine, 10% fetal bovine serum, and 0.5% Pen-Strep. Hygromycin B and Zeocin were present to maintain stable transfection. 10^4 cells were seeded in 96-well plates and incubated overnight 37° C., 5% CO2. 50 μL of serial diluted compounds in media (final 0.5% DMSO) was and incubated for an additional 24 hours. After incubation, the plates were centrifuged at 2000 rpm for 10 min. 50 μl of cell culture supernatant of each well was transferred to a white, opaque 96-well plate. One pouch of QUANTI-Luc™ (InvivoGen) powder was prepared in 25 mL of endotoxin-free water and 100 μL of prepared warm QUANTI-Luc solution were added to each well containing the supernatant. The luminescence signal was measured using a Perkin-Elmer Envision microplate reader. Data were normalized to “% effect” with a positive control STING agonist that was known to maximize the luciferase signal and the negative control DMSO.
In general terms: Reporter assays use an easily measured gene product as a stand-in for the process of interest.

For the next assay, the target named is R232-STING (Homo sapiens, UniProt Q86WV6, H232R). Put plainly: biochemical.
Sequence of R232-STING (Q86WV6 155-341 H232R): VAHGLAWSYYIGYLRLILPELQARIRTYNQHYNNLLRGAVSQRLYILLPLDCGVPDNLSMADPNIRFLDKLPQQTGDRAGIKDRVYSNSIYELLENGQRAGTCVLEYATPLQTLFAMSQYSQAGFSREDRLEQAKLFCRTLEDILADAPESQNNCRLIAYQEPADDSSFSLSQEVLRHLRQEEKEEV

T1 sequence (Q86WV6 whole entry R71H/G230A/H232R/R293Q): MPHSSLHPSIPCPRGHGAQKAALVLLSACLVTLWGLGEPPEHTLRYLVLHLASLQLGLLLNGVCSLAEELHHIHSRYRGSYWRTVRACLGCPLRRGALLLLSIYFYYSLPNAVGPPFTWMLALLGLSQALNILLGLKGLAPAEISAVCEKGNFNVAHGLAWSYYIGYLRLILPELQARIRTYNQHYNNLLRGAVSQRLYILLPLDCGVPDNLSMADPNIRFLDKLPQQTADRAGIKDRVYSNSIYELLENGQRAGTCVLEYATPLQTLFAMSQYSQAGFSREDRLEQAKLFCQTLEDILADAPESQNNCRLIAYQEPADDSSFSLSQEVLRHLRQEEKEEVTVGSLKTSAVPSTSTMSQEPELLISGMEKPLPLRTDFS

`CCn1nc(C)cc1-c1nc(-c2nc(C(N)=O)cc3c2cnn3C)n(CCCN)n1` [YY31, 4-[1-(3-aminopropyl)-3-(1-ethyl-3-methyl-1H-pyrazol-5-yl)-1H-1,2,4-triazol-5-yl]-1-methyl-1H-pyrazolo[4,3-c]pyridine-6-carboxamide]: the EC50 (in general, the concentration needed to bring the measured effect to its halfway point) at STING [1] was over 10 µM; at STING [2], over 13.3 µM. Besides, on R232-STING, the Ki – broadly, a dissociation constant, usually derived from enzyme kinetics or from competition with a known ligand – worked out at 157 nM.
In the same order, the values of `CCn1nc(C)cc1-c1n[nH]c(-c2cc(C(N)=O)cc3c2cnn3C)n1` [Example A01, 4-[3-(1-ethyl-3-methyl-1H-pyrazol-5-yl)-1H-1,2,4-triazol-5-yl]-1-methyl-1H-indazole-6-carboxamide] are 0.92 µM, 1.02 µM and 25.1 nM.
As to `CCn1nc(C)cc1-c1nc(-c2nc(C(N)=O)cc3c2cnn3C)c(C(C)N)s1` (single isomer, unassigned) [Example W02, 4-[5-(1-aminoethyl)-2-(1-ethyl-3-methyl-1H-pyrazol-5-yl)-1,3-thiazol-4-yl]-1-methyl-1H-pyrazolo[4,3-c]pyridine-6-carboxamide], the EC50 was 2.32 µM on STING [1] and 2.46 µM at STING [2]. The molecule also showed a Ki at R232-STING of 67.5 nM.
The corresponding values for `CCn1nc(C)c(O)c1-c1nc(-c2nc(C(N)=O)cc3c2cnn3C)co1` [Example AE01, 4-[2-(1-ethyl-4-hydroxy-3-methyl-1H-pyrazol-5-yl)-1,3-oxazol-4-yl]-1-methyl-1H-pyrazolo[4,3-c]pyridine-6-carboxamide] are 0.2 µM, 0.16 µM and 2.6 nM.
In the case of `CCn1nc(C)c(O)c1-c1n[nH]c(-c2nc(C(N)=O)cc3c2cnn3CCN2CCOCC2)n1` [YY34, 4-[3-(1-ethyl-4-hydroxy-3-methyl-1H-pyrazol-5-yl)-1H-1,2,4-triazol-5-yl]-1-[2-(morpholin-4-yl)ethyl]-1H-pyrazolo[4,3-c]pyridine-6-carboxamide], the EC50 at STING [1] and at STING [2] was over 10 µM each time. Also, the affinity at R232-STING corresponds to a Ki of 84.2 nM.
Turning to `Cc1cc(-c2nc(-c3nc(C(N)=O)cc4c3cnn4C)n(C)n2)n(CCC(=O)O)n1` [Example C09, 3-{5-[5-(6-carbamoyl-1-methyl-1H-pyrazolo[4,3-c]pyridin-4-yl)-1-methyl-1H-1,2,4-triazol-3-yl]-3-methyl-1H-pyrazol-1-yl}propanoic acid], the EC50 on STING [1] amounted to 15.1 µM; on STING [2] it was 12.3 µM. Besides, the affinity on R232-STING corresponds to a Ki of 1.4 nM.
As for `CCn1nc(C)c(O)c1-c1nc(-c2nc(C(N)=O)cc3c2cnn3C)c(CN)s1` [Example X01, (4-(6-carbamoyl-1-methyl-1H-pyrazolo[4,3-c]pyridin-4-yl)-2-(1-ethyl-4-hydroxy-3-methyl-1H-pyrazol-5-yl)thiazol-5-yl)methanaminium formate], the EC50 came out at 0.34 µM on STING [1] and 0.38 µM at STING [2]. Moreover, the affinity at R232-STING, expressed as Ki, was 0.6 nM.
On to `CCn1nc(C)c(F)c1-c1n[nH]c(-c2cc(C(N)=O)cc3c2cnn3CCCN)n1` [YY12, 1-(3-aminopropyl)-4-[3-(1-ethyl-4-fluoro-3-methyl-1H-pyrazol-5-yl)-1H-1,2,4-triazol-5-yl]-1H-indazole-6-carboxamide], for which the EC50 on STING [1] and on STING [2] was over 100 µM throughout. In addition, the Ki at R232-STING stood at 722 nM.
Turning to `CCn1nc(C)cc1-c1nnc(-c2cc(C(N)=O)cc3c2cnn3CCN(C)C)[nH]1` [YY04, 1-[2-(dimethylamino)ethyl]-4-[5-(1-ethyl-3-methyl-1H-pyrazol-5-yl)-4H-1,2,4-triazol-3-yl]-1H-indazole-6-carboxamide], the EC50 on STING [1] and on STING [2] was over 100 µM throughout. On R232-STING, the Ki was over 638 nM.
Regarding `CCn1nc(C)cc1-c1nnc(-c2cc(C(N)=O)cc3c2cnn3CCC(=O)O)[nH]1` [YY03, 3-{6-carbamoyl-4-[5-(1-ethyl-3-methyl-1H-pyrazol-5-yl)-4H-1,2,4-triazol-3-yl]-1H-indazol-1-yl}propanoic acid], the 50% effective concentration (EC50) on STING [1] and on STING [2] was over 100 µM each time. For the same molecule, the affinity at R232-STING corresponds to a Ki of 109 nM.
For the molecule `CCn1nc(C)cc1-c1n[nH]c(-c2cc(C(N)=O)cc3c2cnn3CCN2CCNC(=O)C2)n1` [YY26, 4-[3-(1-ethyl-3-methyl-1H-pyrazol-5-yl)-1H-1,2,4-triazol-5-yl]-1-[2-(3-oxopiperazin-1-yl)ethyl]-1H-indazole-6-carboxamide], the 50% effective concentration (EC50) at STING [1] and at STING [2] was over 33.3 µM throughout. For the same molecule, the inhibition constant (Ki) at R232-STING was found to be 195 nM.
Take `CCn1nc(C)c(F)c1-c1nc(-c2nc(C(N)=O)cc3c2cnn3C)n(C)n1` [Example J03]: the EC50 on STING [1] is 0.63 µM; on STING [2], 0.76 µM. The molecule further gave a Ki on R232-STING of 6.8 nM.
In the same order, the values of `CCn1nc(C)cc1-c1nc(-c2nc(C(N)=O)cc3c2cnn3C)n(CC(=O)O)n1` [YY29, [5-(6-carbamoyl-1-methyl-1H-pyrazolo[4,3-c]pyridin-4-yl)-3-(1-ethyl-3-methyl-1H-pyrazol-5-yl)-1H-1,2,4-triazol-1-yl]acetic acid] are over 33.3 µM, over 33.3 µM and 20.2 nM.
The corresponding values for `CCn1nc(C)cc1-c1csc(-c2cc(C(N)=O)cc3c2cnn3C)n1` [Example H01, 4-[4-(1-ethyl-3-methyl-1H-pyrazol-5-yl)-1,3-thiazol-2-yl]-1-methyl-1H-indazole-6-carboxamide] are 10.8 µM, 7.17 µM and 87.6 nM.
In the same order, the values of `CCn1nc(C)c(F)c1-c1c[nH]c(-c2cc(C(N)=O)cc3c2cnn3C)n1` [Example G02] are 1.16 µM, 1.18 µM and 30.4 nM.
In the case of `Cc1cc(-c2n[nH]c(-c3cc(C(N)=O)cc4c3cnn4C(F)F)n2)n(CCC(=O)O)n1` [YY20, 3-(5-{5-[6-carbamoyl-1-(difluoromethyl)-1H-indazol-4-yl]-1H-1,2,4-triazol-3-yl}-3-methyl-1H-pyrazol-1-yl)propanoic acid], the EC50 on STING [1] and at STING [2] was over 100 µM throughout. Besides, the Ki on R232-STING was determined as 171 nM.
Turning to `CCn1nc(C)cc1-c1nc(-c2nc(C(N)=O)cc3c2cnn3C)c(C(C)N)s1` (racemic) [Compound W-7, 1-(4-(6-carbamoyl-1-methyl-1H-pyrazolo[4,3-c]pyridin-4-yl)-2-(1-ethyl-3-methyl-1H-pyrazol-5-yl)thiazol-5-yl)ethan-1-aminium trifluoroacetate], the half-maximal effective concentration (EC50) on STING [1] was 1.5 µM; at STING [2] it was 1.87 µM. Moreover, on R232-STING, the Ki came out at 33.4 nM.
In the same order, the values of `CCn1ncc(O)c1-c1nc(-c2nc(C(N)=O)cc3c2cnn3C)c(CN)o1` [Example U02] are 6.5 µM, 6.2 µM and 51.6 nM.
Consider `Cc1nn(CCCO)c(-c2nc(-c3nc(C(N)=O)cc4c3cnn4C)c(CN)s2)c1O` [Example AF02], for which the EC50 on STING [1] worked out at 2.26 µM; on STING [2], 1.95 µM. Further, the inhibition constant (Ki) on R232-STING was found to be 11.5 nM.
The corresponding values for `CCn1nc(C)cc1-c1n[nH]c(-c2cc(C(N)=O)cc3c2cnn3CC)n1` [Example B01, 1-ethyl-4-[3-(1-ethyl-3-methyl-1H-pyrazol-5-yl)-1H-1,2,4-triazol-5-yl]-1H-indazole-6-carboxamide] are 25.1 µM, 23.2 µM and 430 nM.
